In assay [1] the test system is PCOS and/or anovulation in female patients. Briefly: GLUCOREIN beverage (chlorogenic acid and L-cysteine) in anovulatory female patients with PCOS symptoms attempting to become pregnant. In kind it is in vivo, human. The settings on record: CLOMID added to GLUCOREIN regimen after three months; three patients with body mass index over 35; read after four months of treatment. As for the experimental part: Ten female patients, between the ages of 25 and 37, each anovulatory, were evaluated. […] Chronic anovulation is a common cause of infertility. These patients were also attempting to become pregnant and presented with multiple symptoms of PCOS. Their diets were supplemented with GLUCOREIN medical food beverage (a powdered solid including the components set forth in Table 1 mixed in 8 ounces of water). Per instructions for use, the patients each consumed one eight-ounce serving of the GLUCOREIN beverage each day, typically in the morning hours.
After four months of treatment, with all ten patients continuing with the protocol, the results were as follows: […]

Assay [2] has as its system PCOS. To be noted: variety of clinical trials, literature; cited from earlier work.

Regarding `CCN(CC)CCOc1ccc(C(=C(Cl)c2ccccc2)c2ccccc2)cc1` [CLOMID, clomiphene], the “patients who tested positive for ovulation” value in assay [1] was “none”.

For `CC(=O)N[C@@H](CS)C(=O)O` [NAC, N-acetyl-L-cysteine], the “treatment or prevention of PCOS” value in assay [2] is “shown to treat or prevent PCOS”.

These data come from US20140045937A1, “METHODS OF TREATING POLYCYSTIC OVARIAN SYNDROME USING CHLOROGENIC ACID” (Oculus Innovative Sciences, Inc., priority 2012, published 2014).
